ChEMBL document CHEMBL5537119 (Eur J Med Chem, 2024)

Assays:
Histone deacetylase 5 = Histone deacetylase 5 (Homo sapiens, UniProt Q9UQL6); experiment: Inhibition of HDAC5 (unknown origin)
Histone deacetylase 8 = target: T1, Histone deacetylase 8 (Homo sapiens, UniProt Q9BY41); experiment: Inhibition of human recombinant HDAC8 using Boc-Lys-(Tfa)-AMC as substrate preincubated for 5 mins followed by substrate addition and measured after 90 mins by fluorescence based microplate reader analysis
T1 sequence (Q9BY41 whole entry): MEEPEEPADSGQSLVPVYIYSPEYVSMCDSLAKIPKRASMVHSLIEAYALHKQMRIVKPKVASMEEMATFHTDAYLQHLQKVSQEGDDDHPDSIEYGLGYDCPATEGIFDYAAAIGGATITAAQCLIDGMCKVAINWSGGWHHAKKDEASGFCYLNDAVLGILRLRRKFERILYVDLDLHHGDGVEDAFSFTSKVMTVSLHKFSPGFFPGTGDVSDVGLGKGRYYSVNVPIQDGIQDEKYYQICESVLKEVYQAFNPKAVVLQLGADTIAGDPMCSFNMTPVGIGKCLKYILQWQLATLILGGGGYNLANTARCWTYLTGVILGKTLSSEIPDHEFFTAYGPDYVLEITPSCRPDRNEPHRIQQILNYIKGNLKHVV

Histone deacetylase 7 = target: T2, Histone deacetylase 7 (Homo sapiens, UniProt Q8WUI4); experiment: Inhibition of HDAC7 (unknown origin)
T2 sequence (Q8WUI4 whole entry): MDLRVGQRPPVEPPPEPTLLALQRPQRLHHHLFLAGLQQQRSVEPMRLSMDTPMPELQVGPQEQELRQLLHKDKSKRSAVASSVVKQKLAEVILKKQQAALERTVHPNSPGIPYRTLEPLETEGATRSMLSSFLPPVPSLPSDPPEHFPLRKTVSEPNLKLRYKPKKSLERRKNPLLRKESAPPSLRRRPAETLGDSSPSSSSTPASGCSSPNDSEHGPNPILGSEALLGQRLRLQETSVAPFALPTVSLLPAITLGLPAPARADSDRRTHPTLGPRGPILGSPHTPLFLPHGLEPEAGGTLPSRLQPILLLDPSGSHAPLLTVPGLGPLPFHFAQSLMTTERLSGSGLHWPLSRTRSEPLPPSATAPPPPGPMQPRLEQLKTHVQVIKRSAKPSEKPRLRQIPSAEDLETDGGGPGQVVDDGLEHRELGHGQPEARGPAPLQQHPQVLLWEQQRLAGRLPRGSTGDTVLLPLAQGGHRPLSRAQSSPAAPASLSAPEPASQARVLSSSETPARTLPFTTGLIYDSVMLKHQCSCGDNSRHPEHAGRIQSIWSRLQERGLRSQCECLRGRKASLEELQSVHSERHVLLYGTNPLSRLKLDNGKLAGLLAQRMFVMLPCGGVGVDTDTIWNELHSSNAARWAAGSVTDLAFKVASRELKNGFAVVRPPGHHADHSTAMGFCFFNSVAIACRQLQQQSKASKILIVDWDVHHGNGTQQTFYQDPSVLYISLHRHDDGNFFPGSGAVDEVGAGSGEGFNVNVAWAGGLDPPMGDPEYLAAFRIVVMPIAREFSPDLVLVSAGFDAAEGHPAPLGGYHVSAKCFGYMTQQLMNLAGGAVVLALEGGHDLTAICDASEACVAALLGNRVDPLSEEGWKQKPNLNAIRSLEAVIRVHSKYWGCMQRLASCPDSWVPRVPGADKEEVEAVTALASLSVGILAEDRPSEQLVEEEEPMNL

[1] = Inhibition of Class IIa/8 HDAC in human THP-1 cells preincubated for 18 hrs followed by substrate addition and measured after 3 hrs by fluorescence based microplate reader assay; assay type: cell-based
THP-1 [2] = experiment: cells; conditions: Homo sapiens, THP-1, 72 h
Description: Antiproliferative activity against human THP-1 cells assessed as inhibition of cell growth incubated for 72 hrs by MTT assay

THP-1 [3] = experiment: Inhibition of Class I/IIb HDAC in human THP-1 cells at 100 uM preincubated for 18 hrs followed by substrate addition and measured after 3 hrs by fluorescence based microplate reader assay relative to control; assay type: cell-based; conditions: time 21.0 hrs
Histone deacetylase 2 = Histone deacetylase 2 (Homo sapiens, UniProt Q92769); experiment: Inhibition of human recombinant HDAC2 using Boc-Lys(Ac)-AMC as substrate preincubated for 5 mins followed by substrate addition and measured after 90 mins by fluorescence based microplate reader analysis
Histone deacetylase 3 = Histone deacetylase 3 (Homo sapiens, UniProt O15379); experiment: Inhibition of HDAC3 (unknown origin)
THP-1 [4] = experiment: Antiproliferative activity against human THP-1 cells assessed as reduction in cell viability at 100 uM incubated for 72 hrs by MTT assay relative to control; assay type: functional
Histone deacetylase 11 = target: T3, Histone deacetylase 11 (Homo sapiens, UniProt Q96DB2); experiment: Inhibition of HDAC11 (unknown origin)
T3 sequence (Q96DB2 whole entry): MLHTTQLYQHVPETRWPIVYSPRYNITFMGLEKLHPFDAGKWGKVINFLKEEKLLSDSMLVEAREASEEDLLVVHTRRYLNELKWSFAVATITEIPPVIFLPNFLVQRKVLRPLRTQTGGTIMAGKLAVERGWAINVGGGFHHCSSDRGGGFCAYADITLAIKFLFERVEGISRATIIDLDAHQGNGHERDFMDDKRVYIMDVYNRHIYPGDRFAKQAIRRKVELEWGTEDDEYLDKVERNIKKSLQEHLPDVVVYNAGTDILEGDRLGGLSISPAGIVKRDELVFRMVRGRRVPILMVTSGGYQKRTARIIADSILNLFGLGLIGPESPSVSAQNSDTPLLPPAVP

[5] = Inhibition of Class I/IIb HDAC in human THP-1 cells preincubated for 18 hrs followed by substrate addition and measured after 3 hrs by fluorescence based microplate reader assay; assay type: cell-based

Histone deacetylase 3, sequence (O15379 whole entry): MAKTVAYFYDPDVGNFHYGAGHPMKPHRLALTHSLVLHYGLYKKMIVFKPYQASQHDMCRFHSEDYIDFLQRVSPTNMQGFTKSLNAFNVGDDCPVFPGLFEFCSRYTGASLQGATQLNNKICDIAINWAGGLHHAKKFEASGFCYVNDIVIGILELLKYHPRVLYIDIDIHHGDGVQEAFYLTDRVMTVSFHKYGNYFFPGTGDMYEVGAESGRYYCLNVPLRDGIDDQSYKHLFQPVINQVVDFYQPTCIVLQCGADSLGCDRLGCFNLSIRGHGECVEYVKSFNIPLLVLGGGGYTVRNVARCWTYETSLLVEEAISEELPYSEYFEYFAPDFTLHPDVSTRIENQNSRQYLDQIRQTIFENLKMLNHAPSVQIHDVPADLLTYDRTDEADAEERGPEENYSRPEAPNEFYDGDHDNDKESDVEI
Histone deacetylase 2, sequence (Q92769 whole entry): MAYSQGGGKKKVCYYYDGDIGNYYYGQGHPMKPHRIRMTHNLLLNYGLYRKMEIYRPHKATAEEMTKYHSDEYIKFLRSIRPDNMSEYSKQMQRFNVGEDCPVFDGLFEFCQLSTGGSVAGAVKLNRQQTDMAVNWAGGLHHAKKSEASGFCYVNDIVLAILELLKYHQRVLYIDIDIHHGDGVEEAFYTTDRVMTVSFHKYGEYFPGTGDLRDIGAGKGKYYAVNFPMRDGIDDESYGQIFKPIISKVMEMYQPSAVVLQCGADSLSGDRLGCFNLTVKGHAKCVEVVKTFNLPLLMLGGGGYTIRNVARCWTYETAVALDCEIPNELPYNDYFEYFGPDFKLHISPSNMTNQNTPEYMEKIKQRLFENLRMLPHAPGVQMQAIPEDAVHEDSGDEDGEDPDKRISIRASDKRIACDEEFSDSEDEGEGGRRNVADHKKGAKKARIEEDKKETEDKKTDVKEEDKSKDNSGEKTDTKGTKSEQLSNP
Histone deacetylase 5, sequence (Q9UQL6 whole entry): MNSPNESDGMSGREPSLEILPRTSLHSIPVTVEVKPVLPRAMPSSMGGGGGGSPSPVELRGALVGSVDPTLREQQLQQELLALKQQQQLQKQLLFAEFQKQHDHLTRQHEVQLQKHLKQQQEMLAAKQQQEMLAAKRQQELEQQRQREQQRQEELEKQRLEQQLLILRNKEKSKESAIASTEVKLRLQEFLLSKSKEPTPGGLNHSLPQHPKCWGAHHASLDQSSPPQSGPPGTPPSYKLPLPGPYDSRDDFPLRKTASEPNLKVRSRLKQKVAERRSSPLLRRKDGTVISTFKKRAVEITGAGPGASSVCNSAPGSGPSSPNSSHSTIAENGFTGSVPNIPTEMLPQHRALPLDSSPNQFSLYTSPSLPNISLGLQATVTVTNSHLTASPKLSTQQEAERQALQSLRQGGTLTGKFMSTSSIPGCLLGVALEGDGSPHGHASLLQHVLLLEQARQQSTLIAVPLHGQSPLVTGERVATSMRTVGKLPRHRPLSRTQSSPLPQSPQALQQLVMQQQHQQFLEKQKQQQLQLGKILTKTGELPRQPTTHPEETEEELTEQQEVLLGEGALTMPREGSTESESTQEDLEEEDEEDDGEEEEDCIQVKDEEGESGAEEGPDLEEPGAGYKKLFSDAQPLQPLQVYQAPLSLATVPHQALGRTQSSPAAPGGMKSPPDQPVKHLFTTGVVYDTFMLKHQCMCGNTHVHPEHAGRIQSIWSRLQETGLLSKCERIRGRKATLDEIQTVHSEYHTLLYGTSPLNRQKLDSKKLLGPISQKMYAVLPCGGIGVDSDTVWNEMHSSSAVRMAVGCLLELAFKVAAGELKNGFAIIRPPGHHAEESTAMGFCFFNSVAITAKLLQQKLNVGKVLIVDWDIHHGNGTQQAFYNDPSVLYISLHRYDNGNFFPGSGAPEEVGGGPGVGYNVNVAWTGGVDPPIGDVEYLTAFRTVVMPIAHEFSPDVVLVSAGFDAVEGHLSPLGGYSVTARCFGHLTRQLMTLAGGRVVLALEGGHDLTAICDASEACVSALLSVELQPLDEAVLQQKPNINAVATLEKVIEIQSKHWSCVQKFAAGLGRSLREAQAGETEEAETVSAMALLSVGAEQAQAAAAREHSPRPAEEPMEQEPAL

IC50 (Histone deacetylase 5): 1.09 µM | IC50 (Histone deacetylase 8): > 100 µM | IC50 (Histone deacetylase 7): 1.97 µM | IC50 [1]: 38.1 µM | IC50 (THP-1 [2]): ~100 µM | IC50 (Histone deacetylase 2): > 100 µM | IC50 (Histone deacetylase 3): > 100 µM | IC50 (Histone deacetylase 11): > 100 µM | IC50 [5]: > 100 µM
SMILES: O=C(NOCc1coc(-c2ccccc2)n1)c1ccc(-c2noc(C(F)(F)F)n2)cc1
inhibition (THP-1 [3]): 0% | Activity (THP-1 [4]): 47%
